According to patent US12448483B2, “Process for preparing carboxylic acid ester-cross-linked polyglycerol esters of 3-hydroxybutyric acid” (KetoLipix Therapeutics GmbH, priority 2020, dated 2025):

Tests used:
[1] = even if several grams are taken; cited from earlier work
[2] = Viscosity of samples from the structural analysis; type: physicochemical
Procedure: For structural analysis, a monodiglycerol ester of 3-hydroxybutyric acid crosslinked with succinic acid is produced according to synthesis route (A) and characterized by gel permeation chromatography (GPC) and acid number determination.
(§1) Subsequently, in the second method step (b), 100 g of the monodiglycerol ester of 3-hydroxybutyric acid are caused to react with 10 g succinic acid anhydride according to a first batch with stirring at 80° C. for 20 h and the water formed is continuously withdrawn by distillation. A sample is taken for further analysis (Sample A) and then another 7 g succinic acid anhydride are added and caused to react at 120° C. for another 6 h. The water formed is withdrawn by continuous distillation. Then another sample is taken for analysis (sample C).
as §1, with “Furthermore,” for “Subsequently,”, “(b), according to a second approach,” for “(b),”, “with the addition of 100 μL of titanium tetrabutylate (catalyst)” for “according to a first batch”, “(sample B)” for “(Sample A)”, “80°” for “120°”, “D).” for “C).”

**Q.** Which Duration of ketosis [1] does the source give for `CC(O)CC(=O)O` (centres unmarked) [3-hydroxybutyric acid] here?
**A.** The Duration of ketosis was “three to four”.

**Q.** With “monodiglycerol esters of 3-hydroxybutyric acid [Educt]” as the molecule, how does the “Viscosity at 25° C.” value [2] read?
**A.** Its value is 15,700 Pas.
